Experimental data from patent publication US6603046B1, “Bis-aromatic a,β-unsaturated ketones” (Lica Pharmaceuticals A/S, priority 1992, dated 2003).
Like-named read-outs stand apart in the source and are kept apart here.

Experiments:
L. major promastigotes = L. major promastigotes from 4-days cultures, 3H-thymidine uptake (Examples 5, 14); type: cell-based, Leishmania major; settings: Leishmania major, Table 14.1, read-out: percentage inhibition of promastigotes (upper figure); for inhibition at 0.5 µg/mL: 0.5 μg/ml; for inhibition at 1 µg/mL: 1 μg/ml; for inhibition at 5 µg/mL: 5 μg/ml; for inhibition at 10 µg/mL: 10 μg/ml
Procedure: Parasite cultures. The same parasite culture as described in Example 4. Promastigotes were harvested on day 4 of the culture and used for the parasiticidal assay.
Effect on promastigotes. […] Following incubation, […] of ^3H-thymidine was added to each well and further incubated for 18 hrs. Promastigotes were then harvested on filter paper by means of a cell harvester (Skatron, Lierbyen, Norway), extensively washed with distilled water and counted in a scintillation counter (Minaxi Ti-Carb 4000, United Technologies, Packard, USA).
L. major promastigotes. The L. major promastigotes were prepared as described in Example 4 and harvested after 4 days.

P. falciparum = P. falciparum growth in vitro (Table 14.1, strain not stated); type: cell-based; settings: Plasmodium falciparum; for inhibition at 0.5 µg/mL: 0.5 μg/ml; for inhibition at 1 µg/mL: 1 μg/ml; for inhibition at 10 µg/mL: 10 μg/ml
Procedure: The P. falciparum experimental setup was as described in Example 15.
Testing of the effect of drugs and serum on the in vitro growth of the parasites. The experiments in which compounds were tested for their ability to inhibit parasite growth were performed by a modification of the method originally described by Jensen et al. (1982). Fifty μl of parasitized erythrocytes (parasitemia approximately 1%) in a concentration of 5×10^8/ml and 50 μl of RPMI medium containing different concentrations of the test compound was added to each well of a 96 well flat-bottomed microtiter plate (Nunc). The cultures were then incubated for 48 hours, 24 hours before termination of the culture adding 20 μl of 3-H-hypoxanthine (40 uCi/ml) (New England Nuclear, Boston, Mass., USA) was added to each well. The cultures were then harvested onto glass fiber filters using a Skatron cell harvester (Skatron, Lierbyen, Norway), and the incorporation of 3-H-hypoxanthine into the DNA of dividing parasites was determined by liquid scintillation spectrometry.

human lymphocytes = assay: Lymphocyte Proliferation Assay, 3H-thymidine incorporation (Example 13); settings: Homo sapiens, Lymphocyte, read-out: inhibition of lymphocytes (lower figure)
[1] = test system: chloroquine resistant P. falciparum DD2 strain; assay: In vitro growth of P. falciparum DD2, 3H-hypoxanthine uptake (Example 15); type: cell-based, Plasmodium falciparum; settings: title: percentage inhibition of 3H-hypoxanthine uptake
P. yoelii strain YM = P. yoelii strain YM infection in mice, parasitemia and mortality (Example 16); type: in vivo, BALB/c mice; settings: Table 16.11; for % parasitemia (mean ± SEM): 3 h after infection, D + 1 to D + 5
[2] = read-out: inhibition of malaria parasites (middle figure) (converted)
[3] = 5 μg/ml, read-out: inhibition of malaria parasites (middle figure) (converted)
[4] = D + 6, i.p. 20 mg/kg twice daily
[5] = D + 6, i.p. 30 mg/kg twice daily
[6] = D + 8, i.p. 20 mg/kg twice daily
[7] = D + 8, i.p. 30 mg/kg twice daily
[8] = D + 10, i.p. 20 mg/kg twice daily
[9] = D + 10, i.p. 30 mg/kg twice daily to D + 5
[10] = D + 12, i.p. 20 mg/kg twice daily
[11] = D + 14, i.p. 20 mg/kg twice daily to D + 5
[12] = D + 14, i.p. 20 mg/kg twice daily
[13] = D + 16, i.p. 20 mg/kg twice daily to D + 5
[14] = D + 16, i.p. 20 mg/kg twice daily

Structure (SMILES) | inhibition at 0.5 µg/mL (L. major promastigotes) | inhibition at 1 µg/mL (L. major promastigotes) | inhibition at 5 µg/mL (L. major promastigotes) | inhibition at 10 µg/mL (L. major promastigotes) | inhibition at 0.5 µg/mL (P. falciparum; [2]) | inhibition at 1 µg/mL (P. falciparum; [2]) | inhibition at 10 µg/mL (P. falciparum; [2]) | inhibition at 0.5 µg/mL (human lymphocytes) | inhibition at 1 µg/mL (human lymphocytes) | inhibition at 5 µg/mL (human lymphocytes) | inhibition at 10 µg/mL (human lymphocytes) | Growth in % of control (mean ± SEM) ([1]; 0.5 μg/ml) | Growth in % of control (mean ± SEM) ([1]; 1 μg/ml) | Growth in % of control (mean ± SEM) ([1]; 5 μg/ml) | Growth in % of control (mean ± SEM) ([1]; 10 μg/ml) | also measured
COc1ccc(/C=C/C(=O)c2ccccc2O)c(OC)c1 | 19.2 ± 18.1% | 37.6 ± 18.3% | 89.4 ± 13.8% | 98.3 ± 1% | 0% | 0.8% | 67.9% | 3% | 5.5% | 2.6% | 0% | – | – | – | – | inhibition at 5 µg/mL (P. falciparum; [3]): 23.4%
COc1cccc(OC)c1/C=C/C(=O)c1ccc(O)cc1 | 11.4 ± 9.2% | 21.5 ± 10.6% | 77.5 ± 4.3% | 93.1 ± 4.6% | 0% | 16.6% | 90.6% | 0% | 3.3% | 2.3% | 4.4% | – | – | – | – | inhibition at 5 µg/mL (P. falciparum; [3]): 71%
COc1cccc(/C=C/C(=O)c2ccc(O)cc2)c1OC [2,3-Dimethoxy-4′-hydroxychalcone] | – | – | – | – | – | – | – | – | – | – | – | 46 ± 22% | 54.4 ± 22.2% | 53.5 ± 20.1% | 67.6 ± 12.4% | –
CCOc1ccc(/C=C/C(=O)c2ccccc2O)c(OCC)c1 [2,4-Diethoxy-2′-hydroxychalcone] | – | – | – | – | – | – | – | – | – | – | – | 23.1 ± 8.3% | 20.8 ± 8.8% | 33.7 ± 8.2% | 55.3 ± 7.4% | –
CCOc1ccc(/C=C/C(=O)c2ccc(O)cc2)c(OCC)c1 [2,4-Diethoxy-4′-hydroxychalcone] | – | – | – | – | – | – | – | – | – | – | – | 14.5 ± 7.2% | 9 ± 7% | 54.2 ± 10.2% | 86.8 ± 7.3% | –
C=CCOc1ccc(C(=O)/C=C/c2ccc(OC)cc2OC)cc1 [2,4-Dimethoxy-4′-allyloxychalcone, 2,4-dimethoxy-4′-prop-2-enyloxychalcone] | – | – | – | – | – | – | – | – | – | – | – | 29.1 ± 10.8% | 23.6 ± 11.2% | 44.3 ± 10.5% | 75.2 ± 7.8% | % parasitemia (mean ± SEM) (P. yoelii strain YM; [4]): 0.4 ± 0.2%; % parasitemia (mean ± SEM) (P. yoelii strain YM; [5]): 37.4 ± 0.9%; % parasitemia (mean ± SEM) (P. yoelii strain YM; D + 6, i.p. 40 mg/kg twice daily): 55.8 ± 1.5%; % parasitemia (mean ± SEM) (P. yoelii strain YM; [6]): 0.8 ± 0.2%; % parasitemia (mean ± SEM) (P. yoelii strain YM; [7]): 67.2 ± 0.9%; mortality (no. of dead mice/total no. of tested mice) (P. yoelii strain YM; D + 8, i.p. 40 mg/kg twice daily to D + 5): (2/5); % parasitemia (mean ± SEM) (P. yoelii strain YM; D + 8, i.p. 40 mg/kg twice daily): 83 ± 2.1%; % parasitemia (mean ± SEM) (P. yoelii strain YM; [8]): 14.3 ± 4.0%; mortality (no. of dead mice/total no. of tested mice) (P. yoelii strain YM; [9]): (5/5); mortality (no. of dead mice/total no. of tested mice) (P. yoelii strain YM; D + 10, i.p. 40 mg/kg twice daily to D + 5): (5/5); % parasitemia (mean ± SEM) (P. yoelii strain YM; [10]): 32.4 ± 4.0%; mortality (no. of dead mice/total no. of tested mice) (P. yoelii strain YM; [11]): 3/5; % parasitemia (mean ± SEM) (P. yoelii strain YM; [12]): 7%; mortality (no. of dead mice/total no. of tested mice) (P. yoelii strain YM; [13]): 3/5; % parasitemia (mean ± SEM) (P. yoelii strain YM; [14]): 0%
COc1ccc(/C=C/C(=O)c2ccc(O)cc2)c(OC)c1 [2,4-Dimethoxy-4′-hydroxychalcone, 2,4-dimethoxy-4′-hydroxychalcone] | – | – | – | – | – | – | – | – | – | – | – | 18.6 ± 7.2% | 21.8 ± 7.3% | 46.8 ± 6.6% | 68.0 ± 4.7% | % parasitemia (mean ± SEM) (P. yoelii strain YM; [4]): 4.8 ± 1.5%; % parasitemia (mean ± SEM) (P. yoelii strain YM; [5]): 46.4 ± 2.1%; mortality (no. of dead mice/total no. of tested mice) (P. yoelii strain YM; D + 6, i.p. 40 mg/kg twice daily to D + 5): (5/5); % parasitemia (mean ± SEM) (P. yoelii strain YM; [6]): 12.4 ± 2.4%; mortality (no. of dead mice/total no. of tested mice) (P. yoelii strain YM; D + 8, i.p. 30 mg/kg twice daily to D + 5): (1/5); % parasitemia (mean ± SEM) (P. yoelii strain YM; [7]): 70.8 ± 3.5%; % parasitemia (mean ± SEM) (P. yoelii strain YM; [8]): 58.6 ± 14%; mortality (no. of dead mice/total no. of tested mice) (P. yoelii strain YM; [9]): (5/5); mortality (no. of dead mice/total no. of tested mice) (P. yoelii strain YM; D + 12, i.p. 20 mg/kg twice daily to D + 5): 3/5; % parasitemia (mean ± SEM) (P. yoelii strain YM; [10]): 25%; mortality (no. of dead mice/total no. of tested mice) (P. yoelii strain YM; [11]): 3/5; % parasitemia (mean ± SEM) (P. yoelii strain YM; [12]): 6%; mortality (no. of dead mice/total no. of tested mice) (P. yoelii strain YM; [13]): 3/5; % parasitemia (mean ± SEM) (P. yoelii strain YM; [14]): 0%
COCOc1ccc(C(=O)/C=C/c2ccc(OC)cc2OC)cc1 [2,4-Dimethoxy-4′-methoxymethoxychalcone, 2,4-dimethoxy-4′-methoxymethoxychalcone] | – | – | – | – | – | – | – | – | – | – | – | 14.0 ± 6.8% | 0 ± 10.9% | 0 ± 10.2% | 40.8 ± 9.3% | –
COc1ccc(OC)c(/C=C/C(=O)c2ccc(O)cc2)c1 [2,5-Dimethoxy-4′-hydroxychalcone] | – | – | – | – | – | – | – | – | – | – | – | 14 ± 75% | 21.2 ± 11.1% | 68.4 ± 6.8% | 92.5 ± 2.4% | –
COc1ccc(OC)c(/C=C/C(=O)c2ccccc2)c1 [2,5-Dimethoxychalcone] | – | – | – | – | – | – | – | – | – | – | – | 11 ± 7.7% | 5.5 ± 5.1% | 27.1 ± 5.3% | 58.8 ± 6.4% | –
C=CCOc1ccc(C(=O)/C=C/c2ccc(OC)c(OC)c2)cc1 [3,4-Dimethoxy-4′-allyloxychalcone, 3,4-dimethoxy-4′-prop-2-enyloxychalcone] | – | – | – | – | – | – | – | – | – | – | – | 0 ± 11.3% | 9.4 ± 15.8% | 16.2 ± 5.5% | 52.8 ± 4.7% | –
C=CCOc1ccc(C(=O)/C=C/c2cc(OC)cc(OC)c2)cc1 [3,5-Dimethoxy-4′-allylchalcone, 3,5-dimethoxy-4′-prop-2-enyloxychalcone] | – | – | – | – | – | – | – | – | – | – | – | 9.1 ± 5.2% | 3.4 ± 4.7% | 44 ± 8.1% | 79.1 ± 10.5% | –
COc1ccc(/C=C/C(=O)c2ccccc2)c(OC)c1 [drawing 67] | 14.5 ± 11.6% | 27 ± 13.7% | 77.8 ± 11.3% | 95.5 ± 3.8% | 0% | 14.7% | 81.8% | 9.1% | 9.2% | 2% | 3.1% | – | – | – | – | inhibition at 5 µg/mL (P. falciparum; read-out: inhibition of malaria parasites (middle figure)): 35.6%
COc1ccc(/C=C/C(=O)c2ccc(O)cc2)c(OC)c1 [drawing 70] | 20 ± 20.6% | 29 ± 22.2% | 66.9 ± 15.9% | 90.9 ± 7.4% | 2.2% | 14.8% | 64.2% | 1.5% | 6.3% | 2.4% | 4% | – | – | – | – | inhibition at 5 µg/mL (P. falciparum; [3]): 31.6%
COc1ccc(OC)c(/C=C/C(=O)c2ccc(O)cc2)c1 [drawing 71] | 34.3% | 61.9% | 96.2% | 99.1% | 15.2% | 23.1% | 93.1% | 3.2% | 6.9% | 78.8% | 98.2% | – | – | – | – | inhibition at 5 µg/mL (P. falciparum; [3]): 71%
